“Also recorded” adds a separate entry of the source.
What was measured:
[1] = target: integrin α5β1 (Homo sapiens, UniProt P05556+P08648); test: integrin α5β1 aggregation around peptide-coated magnetic beads (immunostaining); format: cell-based; parameters: endogenous in cells; host or cells: HUVEC; conditions: magnetic beads coated with peptide, immunostaining for integrin α5β1
Experimental: The integrins not linked are widely distributed on cellular membrane, but after the ligand binding and the activation merged in distinct structures called focal contacts and ECM contact.
It was examined whether the peptide 12 was able to induce aggregation of integrin α5β1 after the binding. EC adherent cells were incubated with magnetic beads coated with peptide 12, or peptide RGD or peptide RGE respectively as positive and negative controls, and immunostained with an antibody against integrin α5β1.

[2] = system: HUVEC migration induced from VEGFR-1/Fc; test: EC migration in Boyden chambers induced by VEGFR-1/Fc; format: cell-based, human; conditions: HUVEC pre-incubated with peptide
Experimental: (§1) In order to investigate the ability to peptide 12 to influence the migration of the EC induced from VEGFR-1/Fc, a process mediated from the integrin α5β1, the HUVEC were pre-incubated with peptide 12 and peptide 1 and placed in Boyden chambers in order to analyze the migration induced from VEGFR-1/Fc or fibronectin (FN). Data represent the average of 14 microscopic fields and are referred to as percentage of inhibition compared to the migration observed in the absence of peptides.

[3] = system: HUVEC; test: adhesion of HUVEC on plates with covalently linked peptides; format: cell-based, human; conditions: HUVEC incubated 1 hour on covalently linked peptide
Experimental: To establish whether the four peptides, were able to inhibit the adhesion of the EC to VEGFR-1, by supporting directly the adhesion of the EC, the peptides were linked covalently to plates and the HUVEC were incubated on plates for 1 hour. The peptide 1 was used as negative control and the peptide RGD as the positive control. Unspecific adhesion was measured by absorbance in the plates covered with BSA.

[4] = system: HUVEC adhesion to fibronectin (FN); test: inhibition by peptides of EC adhesion to fibronectin; format: cell-based, human; conditions: peptide added to HUVEC suspension before plating
Experimental: (§2) In order to test the ability of the twelve chosen peptides to inhibit the adhesion of the EC to VEGFR-1 mediated from the integrin α5β1, every peptide was added to one suspension of HUVEC before plated on dishes covered with VEGFR-1/Fc or fibronectin (FN). The data were indicated as percentage of adhesion, calculated to the number of cells adhered on the substrate itself in absence of peptides.

[5] = system: HUVEC adhesion to peptide 12; test: adhesion of HUVEC to peptide 12 in presence of chelating agents or anti-integrin antibodies; format: cell-based, human; conditions: EDTA or EGTA treatment
Experimental: The peptide 12 or the BSA, as non-specific adhesion control, were linked on plates and the HUVEC added in the presence of chelating agents (EDTA or EGTA).
The HUVEC were pre-incubated with an antibody against the integrin α5β1 or versus the integrinic subunit α6 and left to adhere on plates covered with peptide 12 or BSA.

[6] = system: HUVEC adhesion to VEGFR-1/Fc; test: inhibition by peptides of EC adhesion to VEGFR-1/Fc; format: cell-based, human; conditions: peptide added to HUVEC suspension before plating
Experimental: as §2

[7] = system: HUVEC; test: formation of tubules of EC in Type I collagen gel; format: cell-based, human
Experimental: It was tested the ability of the peptide 12 to induce the formation of tubules of EC. HUVEC cells were plated on 24 wells plates previously covered with a mixture of gel Type I collagen, in the absence or presence of 500 μg/ml peptide 12 or peptide 1. A second layer of gel Type I collagen was placed on the adherent cells. As shown, in the absence or presence of peptides, were added, in the culture medium, different concentrations of VEGF (40 or 100 nM), or 20 μg/ml of protein VEGFR-1/Fc.

[8] = system: rabbit corneal tissue; test: rabbit corneal neovascularization with peptide-releasing pellets; format: in vivo; conditions: rabbit cornea, monitored for 17 days
Text: The FIGS. 6A and 6B show the effect on angiogenesis of the peptide 12 or Y220 compare to VEGF at different concentrations.
To address the angiogenic role, in vivo, pellets releasing peptide 12 were implanted into rabbit corneal tissue and neovascularization was monitored for 17 days.

[9] = system: HUVEC migration induced by fibronectin (FN); test: EC migration in Boyden chambers induced by fibronectin; format: cell-based, human; conditions: HUVEC pre-incubated with peptide
Experimental: as §1

integrin α5β1, sequence (P08648 42-894 limits assumed): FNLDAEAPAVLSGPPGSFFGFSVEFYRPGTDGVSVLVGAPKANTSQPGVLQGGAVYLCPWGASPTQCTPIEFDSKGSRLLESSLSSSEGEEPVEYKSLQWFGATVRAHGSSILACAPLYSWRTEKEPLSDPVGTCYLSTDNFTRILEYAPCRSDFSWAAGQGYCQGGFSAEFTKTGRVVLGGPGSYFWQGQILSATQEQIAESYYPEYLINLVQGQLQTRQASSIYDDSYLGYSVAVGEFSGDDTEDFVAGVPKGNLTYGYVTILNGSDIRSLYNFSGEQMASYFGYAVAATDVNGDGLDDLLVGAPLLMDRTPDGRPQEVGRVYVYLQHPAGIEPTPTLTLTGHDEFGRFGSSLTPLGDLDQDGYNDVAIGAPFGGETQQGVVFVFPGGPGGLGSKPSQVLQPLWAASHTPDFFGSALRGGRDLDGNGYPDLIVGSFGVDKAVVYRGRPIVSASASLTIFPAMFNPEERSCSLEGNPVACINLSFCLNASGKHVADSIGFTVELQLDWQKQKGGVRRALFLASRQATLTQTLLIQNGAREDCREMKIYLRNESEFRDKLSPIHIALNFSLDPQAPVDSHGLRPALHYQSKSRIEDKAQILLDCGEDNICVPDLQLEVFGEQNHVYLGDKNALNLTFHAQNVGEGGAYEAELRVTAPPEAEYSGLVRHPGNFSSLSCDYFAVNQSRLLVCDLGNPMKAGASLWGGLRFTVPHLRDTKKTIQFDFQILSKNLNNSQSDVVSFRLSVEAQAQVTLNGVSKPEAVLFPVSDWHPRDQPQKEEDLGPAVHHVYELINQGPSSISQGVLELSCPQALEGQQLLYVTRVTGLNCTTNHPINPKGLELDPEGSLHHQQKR
integrin α5β1, sequence (P08648 895-1049 partner limits assumed): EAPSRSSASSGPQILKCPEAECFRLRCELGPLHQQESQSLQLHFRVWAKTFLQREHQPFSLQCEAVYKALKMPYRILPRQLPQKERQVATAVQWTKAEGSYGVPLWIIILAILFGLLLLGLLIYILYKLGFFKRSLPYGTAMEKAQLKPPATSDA
integrin α5β1, sequence (P05556 21-798): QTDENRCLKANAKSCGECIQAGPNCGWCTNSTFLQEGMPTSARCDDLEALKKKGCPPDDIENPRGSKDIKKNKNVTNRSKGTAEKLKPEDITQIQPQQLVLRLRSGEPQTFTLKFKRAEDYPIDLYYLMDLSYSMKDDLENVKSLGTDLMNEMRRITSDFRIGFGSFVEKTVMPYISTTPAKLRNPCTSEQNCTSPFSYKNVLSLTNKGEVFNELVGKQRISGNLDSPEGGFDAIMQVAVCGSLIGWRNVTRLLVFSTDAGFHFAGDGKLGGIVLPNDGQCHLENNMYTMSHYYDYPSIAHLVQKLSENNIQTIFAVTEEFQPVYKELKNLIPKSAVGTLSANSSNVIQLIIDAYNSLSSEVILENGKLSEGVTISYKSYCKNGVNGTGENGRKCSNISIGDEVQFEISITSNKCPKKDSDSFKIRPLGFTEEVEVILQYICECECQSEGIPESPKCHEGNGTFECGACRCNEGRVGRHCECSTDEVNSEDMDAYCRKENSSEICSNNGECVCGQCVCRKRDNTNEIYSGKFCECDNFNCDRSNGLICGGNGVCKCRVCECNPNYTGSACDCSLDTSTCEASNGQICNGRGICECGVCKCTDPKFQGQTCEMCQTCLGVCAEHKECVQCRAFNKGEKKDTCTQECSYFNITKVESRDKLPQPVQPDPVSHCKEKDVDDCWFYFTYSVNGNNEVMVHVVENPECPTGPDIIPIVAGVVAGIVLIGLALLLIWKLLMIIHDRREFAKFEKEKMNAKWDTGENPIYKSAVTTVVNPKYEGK

NYLTHRQ (listed as Homo sapiens) [peptide 12]
integrin α5β1 aggregation / bead attachment on EC [1]: A separate colouring for integrin α5β1 was observed around the beads
inhibition of EC migration induced by VEGFR-1/Fc [2]: completely annulled the migratory response; also recorded: inhibits the induced cellular migration from VEGFR-1
direct support of EC adhesion by plate-linked peptide [3]: induced the adhesion of EC; also recorded: directly supports the adhesion of EC
inhibition of adhesion of EC to fibronectin [4]: partially inhibit
dependence of EC adhesion to peptide 12 on divalent cations [5]: requires divalent cations; also recorded: sensitive to divalent cations
inhibition of adhesion of EC to VEGFR-1/Fc [6]: effectively blocked; also recorded: inhibit cellular adhesion to sVEGFR-1
effect on VEGF-induced tubule formation ([7]; 500 μg/ml peptide with VEGF 40 nM): increased the formation of induced VEGF tubules
induction of formation of tubules of EC ([7]; 500 μg/ml peptide, collagen I matrix): able to induce in vitro the formation of vascular structures
formation of vascular structures in presence of VEGFR-1/Fc ([7]; peptide in presence of VEGFR-1/Fc (data not shown)): partially maintained its ability to induce the formation of vascular structures
corneal neoangiogenesis [8]: strongly promoted neoangiogenesis
inhibition of EC migration induced by fibronectin [9]: no significant inhibition
